Values of other authors in publication PMC9585589 (ACS Chemical Neuroscience, 2022).

Target: human CB1
Settings: CB1 agonists, Table S8; ref SI (1)-(19), one per compound; cited from earlier work
For `O=S(=O)(CCCC(F)(F)F)Oc1cccc(Oc2cccc3c2C[C@H](CO)C3)c1` [BAY 38-7271], the Ki is given as 2.91 nM. In the case of `N#Cc1c(Oc2cccc(OS(=O)(=O)CCCC(F)(F)F)c2)cccc1C(F)(F)F` [BAY 59-3074], the Ki is listed as 48.3 nM. For `CCCCCCC(C)(C)c1ccc([C@@H]2C[C@H](O)C[C@@H]3CC[C@H](CO)C[C@H]32)c(O)c1` [CP-55,244], the Ki is given as 1 nM. For `O=C(c1ccc2c(c1)c1ccccc1n2CCCCCF)c1cccc2ccccc12` [EG-2201], the Ki is given as 22.4 nM. In the case of `CCCCCCC(C)(C)c1cc(O)c2c(c1)OC(C)(C)[C@@H]1CC=C(CO)C[C@@H]21` [HU-210], the Ki is listed as 0.06 nM. In the case of `CCCCCn1cc(C(=O)c2cccc3ccccc23)c2ccccc21` [JWH-018], the Ki is given as 9 nM. In the case of `CCCCCCn1cc(C(=O)c2cccc3ccccc23)cc1-c1ccccc1` [JWH-147], the Ki is given as 11 nM. For `CCCCCn1cc(C(=O)c2cccc3ccccc23)cc1-c1ccccc1F` [JWH-307], the Ki is listed as 7.7 nM. For `COC(=O)[C@@H](NC(=O)c1ccc2c(c1)c1ccccc1n2CC1CCCCC1)C(C)(C)C` [MDMB-CHMCZCA], the Ki is listed as 5.75 nM. For `CCCCC/C=C\C/C=C\C/C=C\C/C=C\CCCCOC(CO)CO` [Noladin ether], the Ki is listed as 25 nM. For `CCCCCn1cc(C(=O)C2C(C)(C)C2(C)C)c2ccccc21` [UR-144], the Ki is given as 29 nM. For `CC1(C)C(C(=O)c2cn(CCCCCF)c3ccccc23)C1(C)C` [XLR-11], the Ki is listed as 24 nM.

Same assay, conditions: CB1 antagonists/inverse agonists, Table S9; ref SI (20)-(38), one per compound; cited from earlier work
In the case of `Cc1nc2c(-c3ccc(Cl)cc3)n(-c3ccccc3Cl)nc2c(=O)n1CC(F)(F)F` [CHEMBL201602], the Ki is listed as 0.6 nM. For `Cc1c(C(=O)NN2CCCCC2)nn(-c2ccc(Cl)cc2Cl)c1-c1ccc(N)cc1` [CHEMBL349955], the Ki is given as 81.5 nM. In the case of `CC(C)N1CCOc2c(nn(-c3ccccc3Cl)c2-c2ccc(Cl)cc2)C1=O` [CHEMBL482741], the Ki is listed as 1.3 nM. In the case of `CCNC1(C(N)=O)CCN(c2cnc(-c3ccc(OCC)cc3)c(-c3ccccc3Cl)n2)CC1` [CHEMBL495891], the Ki is given as 15 nM. In the case of `CCNC1(C(N)=O)CCN(c2cnc(-c3ccc(Cl)cc3)c(-c3ccc(Cl)cc3Cl)n2)CC1` [CHEMBL496293], the Ki is listed as 0.91 nM. In the case of `CCNC1(C(N)=O)CN(c2cnc(-c3ccc(C(F)(F)F)cc3)c(-c3ccnc(Cl)c3)n2)C1` [CHEMBL498783], the Ki is given as 1.2 nM. For `Cc1c(-c2cn(-c3ccccc3)cn2)nn(-c2ccccc2Cl)c1-c1ccc(Cl)cc1` [CHEMBL568221], the Ki is given as 3.8 nM. For `CS(=O)(=O)N(c1cc(F)cc(F)c1)C1CN(C(c2ccc(Cl)cc2)c2ccc(Cl)cc2)C1` [Drinabant], the Ki is listed as 11 nM. In the case of `CN=C(NS(=O)(=O)c1ccc(Cl)cc1)N1C[C@H](c2ccccc2)C(c2ccc(Cl)cc2)=N1` [Ibipinabant], the Ki is given as 7.8 nM. For `CC(C)[C@H](N=C(NS(=O)(=O)c1ccc(Cl)cc1)N1C[C@H](c2ccccc2)C(c2ccc(Cl)cc2)=N1)C(N)=O` [JD-5037], the Ki is listed as 0.35 nM. For `C/C(N)=N\C(=N/S(=O)(=O)c1ccc(C(F)(F)F)cc1)N1C[C@H](c2ccccc2)C(c2ccc(Cl)cc2)=N1` [MRI-1867], the Ki is given as 2.3 nM. For `O=C(NCc1ccc(F)cc1)c1ccc(S(=O)(=O)n2cc(N3CCCCC3)c3ccccc32)cc1` [PipISB], the Ki is given as 1.5 nM. In the case of `CCc1c(C(=O)NN2CCCCC2)nn(-c2ccc(Cl)cc2Cl)c1-c1ccc(Br)cc1` [Surinabant], the Ki is given as 3.5 nM. For `C[C@H](NC(=O)C(C)(C)Oc1ccc(C(F)(F)F)cn1)[C@@H](Cc1ccc(Cl)cc1)c1cccc(C#N)c1` [Taranabant], the Ki is given as 0.13 nM.
